We go through eleven molecules from publication PMC5744064, “Regulation of Class A β-Lactamase CzoA by CzoR and IscR in Comamonas testosteroni S44” (Frontiers in Microbiology, 2017).

In brackets after ≈: the same amount, converted by molar mass. Some results are limits rather than exact numbers.

Usually MIC stands for the lowest concentration found to suppress growth. A lower MIC goes with greater potency.

The subject of this experiment is T1, C. testosteroni S44.
T1 construct: S44
Nature of the experiment: organism not typed. The arrangement: species or system Comamonas testosteroni S44; Broth dilution MIC in Mueller-Hinton broth, bacterial growth inhibition (CLSI). As to conditions: wild-type S44, MH broth. On the procedure:
Minimal inhibitory concentration profiles of the recombinant E. coli DH5α ([Miller and Mekalanos, 1988]) expressing czoA (pCT-Zori::czoA) and the isogenic strains of C. testosteroni S44 (S44, ΔczoR, ΔczoR-C, ΔiscR, and ΔiscR-C) were determined by the broth dilution method ([Clinical and Laboratory Standards Institute, 2014]) using 11 β-lactams. For the recombinant E. coli DH5α, two β-lactamase inhibitors, clavulanic acid, and tazobactam were also tested. E. coli DH5α (pCT-Zori) was used as a control. Clavulanic acid and tazobactam were generally fixed at a concentration of 2 and 4 μg/ml, respectively ([Girlich et al., 2007]; [Naas et al., 2007]; [Lamoureaux et al., 2013]; [Clinical and Laboratory Standards Institute, 2014]). Moreover, growth tendency of the isogenic strains of S44 under stress of 11 β-lactams with concentration below MIC was evaluated through OD600 values. Isogenic strains of C. testosteroni S44 in exponential growth phase were inoculated with each of 11 β-lactams in MH medium at 37°C and OD600 values were determined using a spectrophotometer after growth for 24 h. Bacterial strains, plasmids, and [compound left out] primers used in this study are shown in Supplementary Table S1. All strains were grown at 37°C in Luria-Bertani (LB, Oxoid, United Kingdom) broth unless otherwise stated. Mueller-Hinton (MH, Beijing Land Bridge Technology, China) broth dilution was used to determine the minimal inhibitory concentration (MIC) of antibiotics. Antibiotic disk (Hangzhou Microbial Reagent, China) diffusion tests were used for the antibiotic susceptibility assay (cephalexin and cefazolin). […] Then, the seed [compound left out] was used directly in relevant experiments.
In turn, `CC1(C)S[C@@H]2[C@H](NC(=O)[C@H](N)c3ccccc3)C(=O)N2[C@H]1C(=O)O` [Ampicillin] registered an MIC above 2050 µg/mL.

In turn, `CC1(C)S[C@@H]2[C@H](NC(=O)Cc3ccccc3)C(=O)N2[C@H]1C(=O)O` [Benzylpenicillin] came in with an MIC above 2050 µg/mL.

In the case of `CC1=C(C(=O)O)N2C(=O)[C@@H](NC(=O)[C@H](N)c3ccccc3)[C@H]2SC1` [Cefalexin], the MIC was above 1020 µg/mL.

`Cc1nnc(SCC2=C(C(=O)O)N3C(=O)[C@@H](NC(=O)Cn4cnnn4)[C@H]3SC2)s1` [Cefazolin] showed an MIC above 2050 µg/mL.

With `CO/N=C(\C(=O)N[C@@H]1C(=O)N2C(C(=O)[O-])=C(C[N+]3(C)CCCC3)CS[C@H]12)c1csc(N)n1` [Cefepime], the MIC is above 512 µg/mL.

`CO[C@@]1(NC(=O)Cc2cccs2)C(=O)N2C(C(=O)O)=C(COC(N)=O)CS[C@@H]21` [Cefoxitin] displayed a minimal inhibitory concentration (MIC) of 128 µg/mL (≈ 299 µM).

For `CC(C)(O/N=C(\C(=O)N[C@@H]1C(=O)N2C(C(=O)[O-])=C(C[n+]3ccccc3)CS[C@H]12)c1csc(N)n1)C(=O)O` [Ceftazidime], the lowest concentration to inhibit growth (MIC) was 128 µg/mL (≈ 234 µM).

On to `CO/N=C(\C(=O)N[C@@H]1C(=O)N2C(C(=O)O)=C(CSc3nc(=O)c(=O)[nH]n3C)CS[C@H]12)c1csc(N)n1` [Ceftriaxone], for which the minimum inhibitory concentration (MIC) is above 1020 µg/mL.

As to `CO/N=C(\C(=O)N[C@@H]1C(=O)N2C(C(=O)O)=C(COC(N)=O)CS[C@H]12)c1ccco1` [Cefuroxime], the MIC was above 128 µg/mL.

With `C[C@@H](O)[C@H]1C(=O)N2C(C(=O)O)=C(SCCNC=N)C[C@H]12` [Imipenem], the MIC was determined as 8 µg/mL (≈ 26.7 µM).

Turning to `C[C@@H](O)[C@H]1C(=O)N2C(C(=O)O)=C(S[C@@H]3CN[C@H](C(=O)N(C)C)C3)[C@H](C)[C@H]12` [Meropenem], the lowest concentration to inhibit growth (MIC) was 1 µg/mL (≈ 2.61 µM).
